Values of other authors in US5348950A, “Platinum(II) complex and antitumor agent” (Toray Industries, Inc., priority 1991, dated 1994).

Conditions: background statement

Compound: N.N.O=C([O-])C1(C(=O)[O-])CCC1.[Pt+2] [CBDCA, cisdiammine(1,1-cyclobutanedicarboxylato)platinum(II)]
- anti-tumor activity: low anti-tumor activity

Compound: N.N.[Cl][Pt][Cl] [CDDP, cisdiamminedichloroplatinum(II)]
- side effects: strong side effects
